In patent US9751886B2, “4-amino-6-phenyl-6,7-dihydro[1,2,3]triazolo[1,5-A]pyrazine derivatives as inhibitors of beta-secretase (BACE)” (Janssen Pharmaceutica NV, priority 2013, dated 2017):

Assays:
[1] = biological target: recombinant BACE1 protein (Homo sapiens (Human), UniProt P56817); test: BACE1 Biochemical FRET based assay - Method 1; conditions: 1 μg/ml BACE1, 10 μM substrate, 120 min, pH 5.0; read-out: BACE1 Biochemical FRET based assay - Method 1 pIC50 (converted)
From the text: This assay is a Fluorescence Resonance Energy Transfer Assay (FRET) based assay. The substrate for this assay is an APP derived 13 amino acids peptide that contains the ‘Swedish’ Lys-Met/Asn-Leu mutation of the amyloid precursor protein (APP) beta-secretase cleavage site. This substrate also contains two fluorophores: (7-methoxycoumarin-4-yl) acetic acid (Mca) is a fluorescent donor with excitation wavelength at 320 nm and emission at 405 nm and 2,4-Dinitrophenyl (Dnp) is a proprietary quencher acceptor. […] Upon cleavage by BACE1, the fluorophore Mca is separated from the quenching group Dnp, restoring the full fluorescence yield of the donor. The increase in fluorescence is linearly related to the rate of proteolysis.
Briefly in a 384-well format recombinant BACE1 protein in a final concentration of 1 μg/ml is incubated for 120 minutes at room temperature with […] substrate in incubation buffer (40 mM Citrate buffer pH 5.0, 0.04% PEG, 4% DMSO) in the absence or presence of compound. Next the amount of proteolysis is directly measured by fluorescence measurement at T=0 and T=120 (excitation at 320 nm and emission at 405 nm). Results are expressed in RFU (Relative Fluorescence Units), as difference between T120 and TO.

[2] = test system: Abeta total secreted by human neuroblastoma SKNBE2 cells expressing wild type hAPP695; test: BACE1 cellular αLisa assay in SKNBE2 cells, Abeta total; type: cell-based; conditions: Homo sapiens, 18 hours incubation, read-out: Cellular αLisa assay in SKNBE2 cells Abetatotal pIC50 (converted)
Experimental: In two αLisa assays the levels of Abeta total and Abeta 1-42 produced and secreted into the medium of human neuroblastoma SKNBE2 cells are quantified. The assay is based on the human neuroblastoma SKNBE2 expressing the wild type Amyloid Precursor Protein (hAPP695). The compounds are diluted and added to these cells, incubated for 18 hours and then measurements of Abeta 1-42 and Abeta total are taken. Abeta total and Abeta 1-42 are measured by sandwich αLisa. αLisa is a sandwich assay using biotinylated antibody AbN/25 attached to streptavidin coated beads and antibody Ab4G8 or cAb42/26 conjugated acceptor beads for the detection of Abeta total and Abeta 1-42 respectively. In the presence of Abeta total or Abeta 1-42, the beads come into close proximity. The excitation of the donor beads provokes the release of singlet oxygen molecules that trigger a cascade of energy transfer in the acceptor beads, resulting in light emission.

[3] = test system: brain levels of soluble Aβ42, Aβ40; test: In vivo Aβ lowering in non-transgenic rodents (MSD electrochemiluminescence); design: species or system mouse; conditions: dose 10, s.c., untreated control = 100
From the text: To determine whether acute administration of an Aβ lowering agent would reduce Aβ levels in vivo, non-transgenic rodents, e.g. mice or rats were used. Animals treated with the Aβ lowering agent were examined and compared to those untreated or treated with vehicle and brain levels of soluble Aβ42, Aβ40, Aβ38, and Aβ37 were quantitated by Meso Scale Discovery's (MSD) electrochemiluminescence detection technology. Treatment periods varied from hours (h) to days and were adjusted based on the results of the Aβ lowering once a time course of onset of effect could be established.
A typical protocol for measuring Aβ lowering in vivo is shown but it is only one of many variations that could be used to optimize the levels of detectable A. For example, Aβ lowering compounds were formulated in 20% of Captisol® (a sulfo-butyl ether of β-cyclodextrin) in water or 20% hydroxypropyl β cyclodextrin. The Aβ lowering agents were administered as a single oral dose or by any acceptable route of administration to overnight fasted animals. […]
Blood was collected by decapitation and exsanguinations in EDTA-treated collection tubes. Blood was centrifuged at 1900 g for 10 minutes (min) at 4° C. and the plasma recovered and flash frozen for later analysis. The brain was removed from the cranium and hindbrain. The cerebellum was removed and the left and right hemisphere were separated. The left hemisphere was stored at −18° C. for quantitative analysis of test compound levels. The right hemisphere was rinsed with phosphate-buffered saline (PBS) buffer and immediately frozen on dry ice and stored at −80° C. until homogenization for biochemical assays.
Mouse brains from non-transgenic animals were resuspended in 8 volumes of 0.4% DEA (diethylamine)/50 mM NaCl containing protease inhibitors (Roche-11873580001 or 04693159001) per gram of tissue, e.g. for 0.158 g brain, add 1.264 ml of 0.4% DEA. All samples were homogenized in the FastPrep-24 system (MP Biomedicals) using lysing matrix D (MPBio #6913-100) at 6 m/s for 20 seconds. Homogenates were centrifuged at 20800×g for 5 min and supernatants collected. Supernatants were centrifuged at 221.300×g for 50 min. The resulting high speed supernatants were then transferred to fresh eppendorf tubes. Nine parts of supernatant were neutralized with 1 part 0.5 M Tris-HCl pH 6.8 and used to quantify Aβ.
To quantify the amount of Aβ42, Aβ40, Aβ38, and Aβ37 in the soluble fraction of the brain homogenates, simultaneous specific detection of Aβ42, Aβ40, Aβ38, and Aβ37 was performed using MSD's electro-chemiluminescence multiplex detection technology. In this assay purified monoclonal antibodies specific for Abeta37 (JRD/Aβ37/3), Abeta38 (J&JPRD/Aβ38/5), Abeta40 (JRF/cAβ40/28), and Abeta42 (JRF/cAβ(342/26) were coated on MSD 4-plex plates. Briefly, the standards (a dilution of synthetic Aβ42, Aβ40, Aβ38, and Aβ37) were prepared in 1.5 ml Eppendorf tube in Ultraculture, with final concentrations ranging from 10000 to 0.3 pg/m. The samples and standards were co-incubated with Sulfo-tag labelled JRF/rAβ/2 antibody to the N-terminus of Aβ as detector antibody. 50 μl of conjugate/sample or conjugate/standards mixtures were then added to the antibody-coated plate. The plate was allowed to incubate overnight at 4° C. in order to allow formation of the antibody-amyloid complex. Following this incubation and subsequent wash steps the assay was finished by adding read buffer according to the manufacturer's instructions (Meso Scale Discovery, Gaitherburg, Md.).
The SULFO-TAG emits light upon electrochemical stimulation initiated at the electrode. MSD Sector instrument SI6000 was used for signal read-out.
The results are shown in Table 8 (value for untreated animals as control (Ctrl) was set at 100): […]

recombinant BACE1 protein, sequence (P56817 46-501): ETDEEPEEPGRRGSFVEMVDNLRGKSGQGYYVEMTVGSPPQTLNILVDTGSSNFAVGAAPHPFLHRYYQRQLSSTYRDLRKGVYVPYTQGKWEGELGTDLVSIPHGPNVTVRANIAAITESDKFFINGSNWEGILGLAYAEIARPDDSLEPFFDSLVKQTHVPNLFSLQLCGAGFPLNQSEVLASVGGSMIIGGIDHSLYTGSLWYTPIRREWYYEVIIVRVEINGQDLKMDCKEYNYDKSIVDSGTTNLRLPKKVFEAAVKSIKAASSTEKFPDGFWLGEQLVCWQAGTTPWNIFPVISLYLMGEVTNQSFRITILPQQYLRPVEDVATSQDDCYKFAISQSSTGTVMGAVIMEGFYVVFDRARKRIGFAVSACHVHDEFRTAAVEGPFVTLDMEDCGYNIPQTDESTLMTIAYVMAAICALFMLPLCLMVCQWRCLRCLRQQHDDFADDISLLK

IC50 [1]: 5.25 nM | IC50 [2]: 3.24 nM
SMILES: C[C@@]1(c2cc(NC(=O)c3ccc(F)cn3)ccc2F)Cn2nncc2C(N)=N1 [Compound 1, N-{3-[(6R)-4-amino-6-methyl-6,7-dihydro[1,2,3]triazolo[1,5-a]pyrazin-6-yl]-4-fluorophenyl}-5-fluoropyridine-2-carboxamide]
Aβ40 (% vs Ctrl)_Mean ([3]; 2 h after administration): 47 % vs Ctrl | Aβ42 (% vs Ctrl)_Mean ([3]; 2 h after administration): 47 % vs Ctrl | Aβ40 (% vs Ctrl)_Mean ([3]; 4 h after administration): 73 % vs Ctrl | Aβ42 (% vs Ctrl)_Mean ([3]; 4 h after administration): 55 % vs Ctrl
